Experiments:
[1] = system: hypertensive patients; assay: Study 1: blood pressure and heart rate during 8 weeks of oral BH4; format: in vivo, human
Description: Prior studies have used parenteral infusion of BH4 or a single oral dose; thus it was not known whether long-term oral BH4 over a period of days to weeks would result in a sustained improvement in endothelial dysfunction. […] Two studies were conducted to investigate the duration of action of oral BH4 and the response of hypertensive subjects to different doses of BH4. […] Patients were continued on their current anti-hypertensive therapy which remained unchanged. […] BH4 powder was obtained from Schircks Laboratories (Jona, Switzerland). BH4 when administered with vitamin C was compounded with vitamin C at a ratio of 1 mg of vitamin C/1 mg BH4 into appropriate sized capsules. Subjects were advised to keep the pills in a freezer or refrigerator. Eight subjects were recruited, 3 male, mean age 60.5±10.9 years. Subjects were assigned to one of two groups. One group received BH4 10 mg/kg/day (n=4) and the other group received 5 mg/kg/day (n=4) given in two divided doses orally for 8 weeks. These dosages were based on dosing of BH4 used in phenylketonuria. Weekly BP measurements were made throughout the treatment period, and at one week and 6 weeks after discontinuation. Mean blood pressure was calculated as: (SBP+2×DBP)/3. For both study 1 and study 2, the primary end point after statistical analysis was a reduction of systolic, mean and diastolic BP during BH4 therapy. Secondary end points included improvement of endothelial function as FMD. Linear mixed effects models for repeated measures data were used to analyze change in BP from baseline to end of treatment period and differences in change between 100 mg and 200 mg dose groups. A quadratic term for week was included in the model to account for non-linear trends over the treatment period. Dose, week and week squared were the main effect terms in the model; dose by week and dose by week squared were the interaction terms in the model. Significant interaction terms indicate a difference in the pattern of change between the two dose groups. FMD data was analyzed using the two-tailed student t-test.

[2] = system: beagles; details: dog, in vivo, po, 100 mg/kg
Description: This study evaluated the cardiovascular effects of high doses of 6R-BH4 in combination with the PDE5 inhibitor sildenafil citrate in vivo. Eight male research nonnaïve and naïve purebred beagles were dosed in a double Latin square crossover design as described in the following table. All animals were dosed by oral gavage. Test articles were administered at a dose volume of 5 mL/kg (for a total volume of 10 mL/kg for the combination dose); control animals were dosed at a dose volume of 10 mL/kg. 6R-BH4 (sapropterin dihydrochloride) provided as 300 mg tablets (100 mg active 6R-BH4/tablet) stored at room temperature with desiccant.
At initiation of treatment, the animals were approximately 7 to 10 months old, and their body weights prior to dosing ranged from 7.8 to 12.0 kg.
At least 2 weeks prior to initiation of treatment, animals were fasted overnight, anesthetized, and an electrocardiogram (ECG) and blood pressure transmitter were implanted into the abdomen and sutured to the abdominal wall. The blood pressure catheter was placed in an artery and advanced to the abdominal aorta. Animals were checked twice daily (a.m. and p.m.) for mortality, abnormalities, and signs of pain and distress. Additional findings were recorded as observed.
Detailed observations were taken three times during the predose phase (including the day before dosing) and on Days 3 and 10 of the dosing phase. For each dosing day, ECG and pressure measurements were recorded for at least 90 minutes prior to dosing, continuously for at least 8 hours after dosing, and then for one period of at least 15 minutes in duration each hour through at least 24 hours postdose. Blood pressure measurements included systolic, diastolic, and mean arterial pressures and pulse pressure (systolic-diastolic). […]
Quantitative evaluation of ECG measurements, including RR interval, QT, and rate-corrected QT (QTc, using Fridericia's method), were done.
Positive inotropic effects (+dP/dtmax) and heart rate were calculated from a left ventricular pressure signal predose and approximately 2, 4, 8, 12, and 24 hours postdose. […]

[3] = system: patients with poorly controlled hypertension; details: cited from earlier work
[4] = system: cardiac allograft; details: cited from earlier work
[5] = system: forearm blood flow; details: patients with diabetes or hypercholesterolemia but not normal subjects; cited from earlier work
[6] = patients with Type II diabetes and coronary heart disease compared to control subjects; cited from earlier work
[7] = system: coronary vessel; details: in vivo; cited from earlier work

## C[C@H](O)[C@H](O)[C@H]1CNc2nc(N)[nH]c(=O)c2N1 [BH4, tetrahydrobiopterin]
[1]; Study 1
  change in diastolic BP: did not reach statistical significance
  change in heart rate with BH4: no significant change
  differences between the 5 mg/kg and 10 mg/kg doses of BH4: no statistically significant differences
[1]; Study 1, 6 weeks after discontinuation, p=ns compared to baseline
  BP after discontinuation of therapy: returned toward pre-treatment levels
[1]; Study 1, after 3 weeks, p=0.004
  systolic BP lower by a mean of: 13±9 mmHg
[1]; Study 1, after 5 weeks, p=0.04, persisted for the 8 weeks of treatment
  systolic BP lower by a mean of: 15±15 mmHg
[1]; Study 1, combined group (5 and 10 mg/kg/day oral, two divided doses, 8 weeks), p=0.005 quadratic trend
  reduction in systolic BP with BH4: significant reduction
[1]; Study 1, combined group, 8 weeks, p=0.01
  reduction in mean arterial BP with BH4: significant reduction
[1]; continuous therapy, without tachyphylaxis
  duration for which BP reduction was sustained: up to 8 weeks
[2]
  effect on any of the cardiovascular parameters measured: No effect
[3]; 6 weeks after cessation
  blood pressure after cessation of therapy: returned to baseline values
[3]; after 1 week following withdrawal
  FMD following withdrawal: returned to baseline
[3]; after 8 weeks of oral BH4 (5 mg/kg/d, 10 mg/kg/d), eight patients
  FMD: increased significantly
[3]; human, in vivo
  treatment time after which blood pressure reduction was significant: 3 weeks
[3]; oral BH4 5 or 10 mg/kg/d over 8 weeks
  systolic and diastolic pressures: significantly reduced
[4]; BH4 50 mg/kg every 8 hours intramuscularly for 7 days, untreated allografts 7.1±0.7 days, p<0.05
  mean graft survival time: 12.3 ± 4.9 days
[4]; allogeneic mouse heart transplantation
  allograft survival: significantly prolonged
[4]; day 6, also elevated in untreated animals
  Nitrate and nitrite concentrations in plasma: elevated
[5]
  NO-mediated effects on forearm blood flow: augment
[6]
  insulin sensitivity: increases
[7]
  coronary vessel flow: increased
